Laboratory results published in patent publication US11382871B2 (BRIU GmbH, priority 2012, dated 2022).
Where two headings read alike, the source gives them in different places. Blank lines part the entries; values can stand above or below the compound they belong to.

Tests used:
[1] = cited from earlier work; for Solubility: solvents as named in the cell, in water, hexane, ether
[2] = compared with Cisplatin; cited from earlier work
[3] = compared with curcumin; cited from earlier work
cell death = settings: compared with curcumin; cited from earlier work
[4] = compared with curcumin; cited from earlier work; remark: listed apart in the source
tumor = settings: compared with Cisplatin; cited from earlier work
IKK = settings: cited from earlier work
plasma protein = assay: Behaviour of curcumin in the blood stream (plasma protein binding); assay type: in vitro ADME; settings: higher physiological pH of blood
From the text: Since the hydroxyl groups are present in undissociated form when the pH is acidic, the curcuminoids' stability is greater in this environment.

Compound: O=C(/C=C/c1ccc(O)cc1)CC(=O)/C=C/c1ccc(O)cc1 [Bisdemethoxy-CUR, Bis-4-hydroxycinnamoyl methane]
Solubility [1]: Insoluble in water, hexane, ether;

Compound: COc1cc(/C=C/C(=O)CC(=O)/C=C/c2ccc(O)cc2)ccc1O [Demethoxy-CUR, 4-Hydroxycinnamoyl feruloyl methane]
Solubility [1]: Insoluble in water, hexane, ether;

Compound: Cl.O=C1/C(=C/c2ccccc2F)CNC/C1=C\c1ccccc1F [EF-24]
Potential of inducing adverse effects [2]: significantly lower potential of inducing adverse effects
Bioavailability [3]: considerably higher bioavailability
Potency in inducing cell death relative to curcumin (cell death): 10 times
Potency relative to curcumin [4]: more potent than curcumin
Effectiveness in anti-tumor screening (tumor): more effective than Cisplatin
IKK inhibition (IKK): IKK inhibitor

Plasma protein binding on entering the blood stream (plasma protein): binds to plasma protein
Compound: COc1cc(/C=C/C(=O)CC(=O)/C=C/c2ccc(O)c(OC)c2)ccc1O [curcumin, Diferuloylmethane]
Solubility ([1]; listed as CUR): Insoluble in water, hexane, ether;
Solubility in water ([1]; water): insoluble in water
